In order of rising logP:
1. Cc1nc(C)c(Cl)c(O)c1Cl  0.5
2. CCN(CC)C(=O)C(Cl)=C(C)OP(=O)(OC)OC  1.34
3. O=C(O)COc1nc(Cl)c(Cl)cc1Cl  2.09
4. COP(=S)(OC)Oc1ccc(S(=O)(=O)N(C)C)cc1  2.28
5. COc1c(Cl)ccc(Cl)c1C(=O)O  3.01
6. COc1cc(Cl)c(OC)cc1Cl  3.46
7. COC(=O)C(C)N(C(=O)c1ccccc1)c1ccc(F)c(Cl)c1 (racemic)  3.48
8. CC(C)Oc1cc(-n2nc(C(C)(C)C)oc2=O)c(Cl)cc1Cl  4.09
9. CC(C)OC(=O)[C@H](C)N(C(=O)c1ccccc1)c1ccc(F)c(Cl)c1 (racemic)  4.41
10. CCOC(=O)C(C)N(C(=O)c1ccccc1)c1ccc(Cl)c(Cl)c1 (racemic)  4.57
11. ClC=C(c1ccc(Cl)cc1)c1ccc(Cl)cc1  5.27
12. C=C1C(CCl)(CCl)C2(Cl)C(Cl)C(Cl)C1(Cl)C2(Cl)Cl (mixture of isomers)  5.5
13. Clc1ccc(-c2cc(Cl)ccc2Cl)cc1  5.56
14. Brc1c(Br)c(Br)c(Br)c(Br)c1Br  6.51

From the SangsterLogP compilation
